Test results: patent US20160177395A1, “BIOMARKERS FOR THE PREDICTION OF RENAL INJURY” (priority 2007, published 2016)
“And” between values parts separate entries of the source, which are not always exact repeats. Equal values may be shown once. “Also recorded” adds a separate entry of the source.

What was measured:
[1] = system: Sprague-Dawley Crl:CD(SD) rats; assay: Rat toxicity study, single, 5-day and 28-day treatment (clinical observation, clinical pathology, autopsy, organ weights, histopathology);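 note: control rats received saline intraperitoneally, and the organs examined were adrenals, brain, kidneys, liver, spleen and thymus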
Method: Control animals were treated intraperitoneal with saline.
Randomization and group allocation: prior to treatment, the animals were assigned to the experimental groups based on their body weight. Mean body weight of each group at randomization was not deviate±20% of the mean population weight. Males and females were randomized separately. For the randomization, a computer program was used.
The day before autopsy, urinalysis was performed and blood samples were taken for hematology and clinical chemistry examinations.
On the day of autopsy the animals were anaesthetized with isoflurane, blood was collected for PBMC isolation then subjected to autopsy. Tissues and organs (adrenals, brain, kidneys, liver, spleen and thymus) were weighed and subjected to gross pathological and histopathological examinations.

[2] = system: kidney tissues of treated or untreated rats; assay: Real-time qRT-PCR of marker transcripts in kidney tissue panel, discovery stage (Table 22); assay type: in vivo, rat; details: listed as CadCl; for normalized Real Time PCR RATRAB13X_DB81_seg15-17 / normalized Real Time PCR RATRAB13X_DB81_seg22 / normalized Real Time PCR W33294_DB81_seg23 / normalized Real Time PCR W33294_DB81_seg44 / normalized Real Time PCR MMU09507_DB81_seg15 / normalized Real Time PCR MUSCYCG1R_DB81_seg19-20: kidney
Method: Before RT preparation the RNA was treated with DNA-free (Ambion, cat. No. AM1906) DNase treatment and removal—according to manufacturer protocol. DNase procedure was repeated until no DNA is detected in a PCR reaction using the RNA samples.
The mixture is then incubated for 5 min at 65° C. and then quickly chilled on ice. Thereafter, 20 μl of 5× SuperscriptII first strand buffer (Invitrogen, Cat. No. Y00146), 9.6 μl 0.1M DTT (Invitrogen, Cat. No. Y00147) and 160 units RNasin (Promega, Cat. No. N251A) are added, and the mixture is incubated for 10 min at 25° C., followed by further incubation at 42° C. for 2 min. […] The resulting cDNA is diluted 1:20 in TE buffer (10 mM Tris pH=8, 1 mM EDTA pH=8).
cDNA (5 μl), prepared as described above, is used as a template in Real-Time PCR reactions using the SYBR Green I assay (PE Applied Biosystem) with specific primers in 100 nM concentration if not indicated otherwise and UNG Enzyme (Eurogentech or equal) Amplification is effected as follows: 50° C. for 2 min, 95° C. for 10 min, and then 40 cycles of 95° C. for 15 sec, followed by 60° C. for 1 min (if not indicated otherwise). Amplification step is followed by dissociation step. Detection is performed by using the PE Applied Biosystem SDS 7000. The cycle in which the reactions achieved a threshold level (Ct) of fluorescence is registered and is used to calculate the relative transcript quantity in the RT reactions. Non-detected samples are assigned Ct value of 41 and are calculated accordingly. The relative quantity is calculated using the equation Q=efficiencŷ-Ct. The efficiency of the PCR reaction is calculated from a standard curve, created by using serial dilutions of several reverse transcription (RT) reactions. To minimize inherent differences in the RT reaction, the resulting relative quantities are normalized to normalization factor calculated as follows: […]
The relative quantity (Q) of each housekeeping gene in each sample is calculated as described above. In order to calculate the “relative Q relative to MED” each Q for each HSKP gene is divided by the median quantity of this gene in all panel samples. To finally achieve the normalization factor of each sample the geometric mean of all four “relative Q relative to MED” was calculated. The normalization factor was then used for further calculations.
The markers of the present invention were tested with regard to their expression in a panel of kidney tissues samples from treated and control rats. Unless otherwise noted, all experimental data relates to the novel polynucleotides and proteins of the present invention, named according to the segment being tested (as expression was tested through RT-PCR as described). Tests were then performed as described in the “Materials and Experimental Procedures” section above.
The qRT-PCR measurements were normalized according to each samples normalization factor as described in “RT Preparation and Real-Time qRT-PCR Analysis” and further multiplied by a constant factor for ease of viewing.

[3] = 5-day treatment, compared with controls
[4] = rat kidney, day1, individual animals (F and M)

[Cl][Cd][Cl] [Cadmium chloride]
Autopsy findings ([1]; 5-day treatment): No effect | Body weight gain ([1]; 5-day treatment): Body weight gain decreased in both sexes; also recorded: Decreased body weight gain was recorded in males | Clinical pathology ([1]; 5-day treatment): Slightly increased Gamma GT values were recorded in females; also recorded: ♀: ↑ γGT | Clinical symptoms ([1]; 5-day treatment): mild clinical symptoms (hollow psoas, colic) immediately after the administration | Histopathology / renal damage ([1]; 5-day treatment): No renal damage was found | Organ weight [1, 3]: Lower thymus weights | Water consumption [1, 3]: Decrease in Tobramycin and Cadmium chloride treated females | Body weight and body weight gain ([1]; 28-day treatment): affected body weight gain in both sexes; also recorded: Effect on body weight and body weight gain was seen | Clinical symptoms ([1]; 28-day treatment): Mild clinical symptoms (hollow psoas, colic) were recorded in both sexes; also recorded: Clinical symptoms were observed | Histopathology / nephrotoxicity ([1]; 28-day treatment): significant nephrotoxicity was found only in a single female; also recorded: ♂: lymphoid depletion | Water consumption ([1]; 28-day treatment): Slightly lower water consumption was recorded in males | Clinical pathology ([1]; 28-day treatment, blood and urine): AST (Aspartate Aminotransferase) values were elevated in both sexes; also recorded: A few transitional epithelial cells were observed in the urine of females; also recorded: ♀: trans. epith | Water consumption, males ([1]; 28-day treatment, compared with controls): Sight decrease during the last week | Decreasing order of nephrotoxicity at histopathological examination ([1]; 28-day treatment, females): Cisplatin, Cadmium chloride, Gentamycin, Doxorubicin and Tobramycin in females | Autopsy findings ([1]; 28-day treatment, male and female rats): Round bordered spleen and liver and thickening of peritoneum were recorded in both sexes; also recorded: Pale and enlarged kidneys were found in a single female; also recorded: Round bordered liver, enlarged spleen and thickening of the peritoneum were found in both sexes | Organ weight ([1]; 28-day treatment, male and female rats, compared with controls): higher liver and spleen weight; also recorded: increased weight of kidneys and decreased thymus were recorded in females; also recorded: Increased liver weights in groups of both sexes; also recorded: Higher weights of kidneys in females; also recorded: Weights of spleen were higher in Gentamycin treated males and Cadmium chloride treated groups of both sexes; also recorded: Decreased thymus weights | Clinical symptoms ([1]; single and 5-day treatment): Clinical symptoms were observed only in Cadmium chloride groups of both sexes | Body weight gain ([1]; single treatment): Decreased body weight gain was recorded in both sexes | Clinical pathology ([1]; single treatment): Lower lymphocytes and increased neutrophils counts were found in males | Clinical symptoms ([1]; single treatment): Mild clinical symptoms (hollow psoas, colic) were observed in both sexes | normalized Real Time PCR RATRAB13X_DB81_seg15-17 ([2]; female rats, day1): 1.63 and 1.8 and 1.55 | normalized Real Time PCR RATRAB13X_DB81_seg22 ([2]; female rats, day1): 1.73 and 1.83 and 1.16 | normalized Real Time PCR W33294_DB81_seg23 ([2]; female rats, day1): 1.9 and 1.74 and 1.36 | normalized Real Time PCR W33294_DB81_seg44 ([2]; female rats, day1): 1.79 and 1.39 and 1.57 | normalized Real Time PCR MMU09507_DB81_seg15 ([2]; female rats, day5): 0.87 and 0.56 | normalized Real Time PCR MUSCYCG1R_DB81_seg19-20 ([2]; female rats, day5): 1.21 and 1.01 | normalized Real Time PCR RATRAB13X_DB81_seg15-17 ([2]; female rats, day5): 1.81 and 0.97 | normalized Real Time PCR RATRAB13X_DB81_seg22 ([2]; female rats, day5): 1.56 and 1.1 | normalized Real Time PCR W33294_DB81_seg23 ([2]; female rats, day5): 1.76 and 1.7 | normalized Real Time PCR W33294_DB81_seg44 ([2]; female rats, day5): 2.05 and 1.37 | normalized Real Time PCR MUSCYCG1R_DB81_seg19-20 ([2]; female rats, day28): 0.54 and 0.62 and 0.56 | normalized Real Time PCR RATRAB13X_DB81_seg15-17 ([2]; female rats, day28): 0.83 and 0.89 and 0.82 | normalized Real Time PCR RATRAB13X_DB81_seg22 ([2]; female rats, day28): 0.7 and 0.9 and 0.46 | normalized Real Time PCR W33294_DB81_seg23 ([2]; female rats, day28): 0.94 and 0.97 and 0.85 | normalized Real Time PCR W33294_DB81_seg44 ([2]; female rats, day28): 0.88 and 0.69 and 0.7 | normalized Real Time PCR MUSCYCG1R_DB81_seg19-20 ([2]; male rats, day1): 0.58 and 1.03 and 0.78 | normalized Real Time PCR RATRAB13X_DB81_seg15-17 ([2]; male rats, day1): 0.73 and 0.92 and 1.01 | normalized Real Time PCR RATRAB13X_DB81_seg22 ([2]; male rats, day1): 0.92 and 1.29 and 0.67 | normalized Real Time PCR W33294_DB81_seg23 ([2]; male rats, day1): 0.62 and 0.31 and 0.37 | normalized Real Time PCR MMU09507_DB81_seg15 ([2]; male rats, day5): 0.33 and 0.49 and 0.38 | normalized Real Time PCR MUSCYCG1R_DB81_seg19-20 ([2]; male rats, day5): 1.22 and 1.12 and 1.04 | normalized Real Time PCR RATRAB13X_DB81_seg15-17 ([2]; male rats, day5): 1.18 and 0.88 and 1.07 | normalized Real Time PCR RATRAB13X_DB81_seg22 ([2]; male rats, day5): 1.65 and 1.58 and 1.21 | normalized Real Time PCR W33294_DB81_seg23 ([2]; male rats, day5): 1.41 and 1.45 and 1.03 | normalized Real Time PCR W33294_DB81_seg44 ([2]; male rats, day5): 1.32 and 1.43 and 1.42 | normalized Real Time PCR MMU09507_DB81_seg15 ([2]; male rats, day28): 0.42 and 0.45 | normalized Real Time PCR RATRAB13X_DB81_seg22 ([2]; male rats, day28): 0.63 and 0.87 and 0.49 | normalized Real Time PCR W33294_DB81_seg23 ([2]; male rats, day28): 0.7 and 0.65 | normalized Real Time PCR W33294_DB81_seg44 ([2]; male rats, day28): 0.73 and 0.53 | H33998_DB71_seg19 normalized Real Time PCR [2, 4]: 2.29 and 2.51 and 0.01 and 0.76 and 0.66 and 0.69 | MUSCYCG1R_DB81_seg15-17 normalized Real Time PCR [2, 4]: 1.91 and 1.36 and 1.68 and 0.61 and 0.73 and 0.36 | RATLRFI_DB71_seg9 normalized Real Time PCR [2, 4]: 0.27 (2×) and 0.33 and 0.32 and 0.36 and 0.23 | RATRAB13X_DB71_seg11-13 normalized Real Time PCR [2, 4]: 0.95 (2×) and 1.2 and 1.05 and 1.22 and 1.14
